pIC50, pKi: −log10 of the molar value. Entries after “also recorded” stand apart in the source; their conditions may differ.
Experiments:
NE uptake, mouse atria = biological target: T1, NE uptake, mouse atria (Mus musculus, UniProt O55192); conditions: Hyttel, 1980; cited from earlier work
T1 construct: host or cells: mouse atria

[1] = test system: L5 SNL rats, tactile allodynia; assay: L5-Single Nerve Ligation model of neuropathic pain (von Frey); assay type: in vivo, rat; conditions: 30 mg/kg, i.p.
Description: Protocol. […] The test animals were placed in a Plexiglas chamber (10 cm×20 cm×25 cm) and habituated for 15 minutes. The chamber was positioned on top of a mesh screen so that von Frey monofilaments could be presented to the plantar surface of both hindpaws. Measurement of tactile sensitivity for each hindpaw were obtained using the up/down method (Dixon, 1980) with seven Frey monofilaments (0.4, 1, 2, 4, 6, 8 and 15 grams). Each trial started with a von Frey force of 2 grams delivered to the right hindpaw for approximately 1-2 seconds and then the left hindpaw. If there was no withdrawal response, the next higher force was delivered. If there was a response, the next lower force was delivered. This procedure was performed until no response was made at the highest force (15 grams) or until four stimuli were administered following the initial response. Each test group contained 8 animals. The sham-operated control group, which were operated on but not subject to nerve ligation, contained 4 animals. All animals were tested at 60 minutes, and 240 minutes, post-administration of test compounds.
The 50% paw withdrawal threshold for each paw was calculated using the following formula: [Xth] log=[vFr] log+ky where [vFr] is the force of the last von Frey used, k=0.2249 which is the average interval (in log units) between the von Frey monofilaments, and y is a value that depends upon the pattern of withdrawal responses (Dixon, 1980). […] Testing for tactile sensitivity was performed twice and the mean 50% withdrawal value assigned as the tactile sensitivity for the right and left paws for each animal.
The E-10-OH-NT compounds were administered as either a maleate or succinate salt. AT was administered as a hydrochloride salt. Dosage amounts are based on the amount of free base. The test animals were placed in a Plexiglas chamber (10 cm×20 cm×25 cm) and habituated for 15 minutes. The chamber was positioned on top of a mesh screen so that von Frey monofilaments could be presented to the plantar surface of both hindpaws. Measurement of tactile sensitivity for each hindpaw were obtained using the up/down method (Dixon, 1980) with seven Frey monofilaments (0.4, 1, 2, 4, 6, 8 and 15 grams). Each trial started with a von Frey force of 2 grams delivered to the right hindpaw for approximately 1-2 seconds and then the left hindpaw. If there was no withdrawal response, the next higher force was delivered. If there was a response, the next lower force was delivered. This procedure was performed until no response was made at the highest force (15 grams) or until four stimuli were administered following the initial response. Each test group contained 8 animals. The sham-operated control group, which were operated on but not subject to nerve ligation, contained 4 animals. […]

[2] = biological target: T2, human serotonin transporter (hSERT) (Homo sapiens, UniProt P31645); assay: 5HT transporter competitive binding assay, [3H]imipramine; conditions: Example 14; read-out: SERT Ki
T2 construct: expressed in transfected cells; host or cells: CHO cells (membranes)
Description: (§1) Bound radioactivity was determined by scintillation spectroscopy. […] The Ki values of the various test compounds were determined using standard methods.
as §1

[3] = biological target: human NE transporter (hNET) (Homo sapiens, UniProt P23975); assay: NE transporter competitive binding assay, [3H]nisoxetine; conditions: Example 14; read-out: NET Ki
Description: (§2) Protocol. […] Bound radioactivity was determined by scintillation spectroscopy. Non-specific binding was defined as the amount of binding that occurred in the presence of 1.0 μM desipramine. The Ki values of the various test compounds were determined using standard methods.
as §2

[4] = Hygroscopicity of salt form; assay type: physicochemical; conditions: crystalline salt
[5] = test system: acetic acid-induced abdominal constriction; conditions: cited from earlier work
pain intensity = conditions: study completers; Atkinson et al., 1999; cited from earlier work

T2 sequence (P31645 whole entry): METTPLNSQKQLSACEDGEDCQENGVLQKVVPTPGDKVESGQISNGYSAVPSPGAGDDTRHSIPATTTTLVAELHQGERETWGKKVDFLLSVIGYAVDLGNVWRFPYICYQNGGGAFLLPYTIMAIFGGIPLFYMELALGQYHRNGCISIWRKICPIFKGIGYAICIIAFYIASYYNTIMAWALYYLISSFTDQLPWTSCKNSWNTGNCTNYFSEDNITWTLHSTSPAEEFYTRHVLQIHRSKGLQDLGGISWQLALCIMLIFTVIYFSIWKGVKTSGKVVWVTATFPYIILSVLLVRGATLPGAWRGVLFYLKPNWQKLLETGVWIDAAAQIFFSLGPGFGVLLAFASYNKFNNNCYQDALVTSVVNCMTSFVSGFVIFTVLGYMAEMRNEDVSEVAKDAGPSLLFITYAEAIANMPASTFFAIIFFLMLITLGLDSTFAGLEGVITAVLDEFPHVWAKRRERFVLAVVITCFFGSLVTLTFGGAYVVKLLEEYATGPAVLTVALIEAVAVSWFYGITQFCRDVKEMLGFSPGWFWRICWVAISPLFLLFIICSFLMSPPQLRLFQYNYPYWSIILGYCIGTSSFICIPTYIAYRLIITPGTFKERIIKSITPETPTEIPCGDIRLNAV
T1 sequence (O55192 whole entry): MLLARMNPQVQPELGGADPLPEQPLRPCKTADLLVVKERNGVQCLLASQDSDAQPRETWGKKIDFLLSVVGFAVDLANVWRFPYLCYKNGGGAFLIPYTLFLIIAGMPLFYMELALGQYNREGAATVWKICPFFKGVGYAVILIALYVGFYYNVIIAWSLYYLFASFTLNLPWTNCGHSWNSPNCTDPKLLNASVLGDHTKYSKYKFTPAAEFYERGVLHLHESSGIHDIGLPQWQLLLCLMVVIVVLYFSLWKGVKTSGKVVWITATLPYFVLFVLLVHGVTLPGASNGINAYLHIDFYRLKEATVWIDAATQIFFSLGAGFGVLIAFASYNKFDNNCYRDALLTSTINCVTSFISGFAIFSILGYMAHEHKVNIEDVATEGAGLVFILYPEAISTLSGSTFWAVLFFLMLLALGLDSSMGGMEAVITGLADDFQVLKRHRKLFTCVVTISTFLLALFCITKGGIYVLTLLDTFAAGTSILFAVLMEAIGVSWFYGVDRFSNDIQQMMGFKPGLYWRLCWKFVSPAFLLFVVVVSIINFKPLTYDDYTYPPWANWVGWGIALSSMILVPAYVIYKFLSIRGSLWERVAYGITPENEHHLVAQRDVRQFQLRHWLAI
Sequence of human NE transporter (hNET) (P23975 whole entry): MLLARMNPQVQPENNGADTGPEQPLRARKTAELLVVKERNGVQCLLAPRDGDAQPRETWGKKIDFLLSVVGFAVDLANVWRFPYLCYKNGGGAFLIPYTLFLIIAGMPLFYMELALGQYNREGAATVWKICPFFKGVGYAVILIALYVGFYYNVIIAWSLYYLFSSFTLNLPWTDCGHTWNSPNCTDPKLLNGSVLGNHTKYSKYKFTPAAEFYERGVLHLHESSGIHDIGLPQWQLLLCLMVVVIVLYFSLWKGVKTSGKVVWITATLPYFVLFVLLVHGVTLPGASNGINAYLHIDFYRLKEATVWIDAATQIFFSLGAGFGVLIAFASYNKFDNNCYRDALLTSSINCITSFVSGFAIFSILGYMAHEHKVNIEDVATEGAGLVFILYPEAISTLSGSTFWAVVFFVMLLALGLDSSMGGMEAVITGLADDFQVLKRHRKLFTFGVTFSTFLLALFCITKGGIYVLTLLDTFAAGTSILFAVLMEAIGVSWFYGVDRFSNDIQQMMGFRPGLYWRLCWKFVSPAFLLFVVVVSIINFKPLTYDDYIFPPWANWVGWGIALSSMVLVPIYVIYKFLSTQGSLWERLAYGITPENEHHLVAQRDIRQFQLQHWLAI

Structure (SMILES): CNCC/C=C1\c2ccccc2CC(O)c2ccccc21 (racemic) [(±)-E-10-OH-NT, (S/R)-5-[3-Methylamino-prop-(E)-ylidene]-10,11-dihydro-5H-dibenzo[a,d]cyclohepten-10-ol, reference compound]
- pIC50 (NE uptake, mouse atria): 6.89
- antiallodynic activity [1]: comparable to that of the vehicle-only control
- pKi [2]: 6.38
- pKi [3]: 7.29

Structure (SMILES): CNCC/C=C1\c2ccccc2CC(O)c2ccccc21.O=C(O)CCC(=O)O (single isomer, unassigned; (-)) [(−)-E-10-OH-NT Succinate]
- hygroscopicity [4]: non-hydroscopic; also recorded: non-hygroscopic

Structure (SMILES): COC1(C2=NCCN2)COc2ccccc2O1 (stereo not drawn) [RX821002, [2-(2-methoxy-1, -4-benzodioxan-2-yl)-2-imidazoline]]
- inhibition of acetic acid-induced abdominal constriction ([5]; doses up to 3 mg/kg, subcutaneously, by itself): did not produce significant inhibition

Structure (SMILES): Clc1cccc(Cl)c1N=C1NCCN1 [clonidine]
- protection against acetic acid-induced abdominal constriction ([5]; highest dose level, 1.0 mg/kg (s.c.)): 100%

Structure (SMILES): CNCCCC12CCC(c3ccccc31)c1ccccc12 [maprotiline]
- reduction in pain intensity (pain intensity): 45%

Structure (SMILES): Fc1ccc([C@@H]2CCNC[C@H]2COc2ccc3c(c2)OCO3)cc1 [paroxetine]
- reduction in pain intensity (pain intensity): 26%

Source: US20120178815A1, “Compositions of (-)-E-10-OH-NT and Methods for Their Synthesis and Use” (Adolor Corporation, priority 2007, published 2012)
